The values that follow are results of earlier work, collected in patent publication US20140044668A1, “Methods for Predicting Cardiovascular Risks and Responsiveness to Statin Therapy Using SNPs” (THE OHIO STATE UNIVERSITY, priority 2011, published 2014).

In this series the target is T1, CETP (Homo sapiens, UniProt P11597).
T1 sequence (P11597 18-493): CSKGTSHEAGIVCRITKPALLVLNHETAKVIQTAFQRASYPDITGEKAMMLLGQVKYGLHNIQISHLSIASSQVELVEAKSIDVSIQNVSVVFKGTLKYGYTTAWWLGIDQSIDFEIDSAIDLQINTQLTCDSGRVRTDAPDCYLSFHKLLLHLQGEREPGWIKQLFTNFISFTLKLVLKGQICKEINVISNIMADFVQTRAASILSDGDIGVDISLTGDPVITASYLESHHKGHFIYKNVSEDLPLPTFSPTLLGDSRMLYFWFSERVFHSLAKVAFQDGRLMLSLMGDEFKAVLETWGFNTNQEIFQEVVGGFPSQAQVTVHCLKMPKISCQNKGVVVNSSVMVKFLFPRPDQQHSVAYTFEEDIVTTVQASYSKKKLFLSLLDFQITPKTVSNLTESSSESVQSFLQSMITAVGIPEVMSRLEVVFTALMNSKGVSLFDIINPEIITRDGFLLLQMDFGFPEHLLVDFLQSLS
To be noted: in vivo.

On to `CCOC(=O)N1c2ccc(C(F)(F)F)cc2[C@@H](N(Cc2cc(C(F)(F)F)cc(C(F)(F)F)c2)C(=O)OC)C[C@H]1CC` [torcetrapib], for which the HDL entry is given as “HDL increased”, the LDL result is listed as “LDL decreased substantially” and the cardiovascular events result is “increase cardiovascular events”.
